Assay results from patent US12644097B2, “Differentiation of trophectoderm lineage cells from pluripotent stem cells” (The United States of America, as represented by the …, priority 2020, dated 2026).

How the values were obtained:
[1] = test system: trophoblast stem-like cells; experiment: Passaging of trophoblast stem-like cells in TE3 medium with or without Chroman 1 or CEPT supplementation; type: cell-based, human; conditions: additional 25 nM Chroman 1, alone or as component of CEPT, in TE3 medium (total 50 nM Chroman 1) for first 24 hours after passaging; WA09-derived cells, reproduced with JHU191i, JHU198i, MCW032i, WA07
Description: To generate self-renewing trophoblast stem-like cells from the syncytiotrophoblast-like structures, the syncytiotrophoblast-like structures were cultured in TE3 medium: TE2 medium supplemented with 300 nM CHIR98014, 100 ng/ml EGF, 50 ng/ml HGF, 80 ng/ml R-spondin 1, 50 ng/ml R-spondin 3, 2.5 μM prostaglandin E2 and 25 nM Chroman 1. Trophoblast stem-like cells appeared in the cultures and started proliferating after a very short time following the start of the culturing into TE3 medium. The cells created compact epithelial-like colonies with cobblestone morphology and clearly defined border. The individual cells gradually became more compact. This morphological transformation was most obvious at passage 3 performed in TE3 medium.
The trophoblast stem-like cells were cultured in TE3 medium with or without CEPT supplementation, and also with or without Chroman 1 supplementation. For Chroman 1 or CEPT supplementation, when the trophoblast stem-like cells were passaged, the cells were seeded into TE3 medium supplemented with either an additional 25 nM Chroman 1 (for Chroman 1 supplementation) or CEPT containing 25 nM Chroman 1 (for CEPT supplementation). Since TE3 medium already contained 25 nM Chroman 1, only another 25 nM was added either alone or as a component of CEPT, so that the total concentration of Chroman 1 in TE3 medium was 50 nM for the first 24 hours after passaging. […]

[2] = cited from earlier work; for IC50: as described in Sidrauski et al. eLIFE 2:e00498 (2013)

## COc1ccc2c(c1)C[C@H](C(=O)Nc1ccc(-c3cn[nH]c3)cc1OCCN(C)C)CO2 [Chroman 1, (3S)—N-{2-[2-(Dimethylamino)ethoxy]-4-(1H-pyrazol-4-yl)phenyl}-6-methoxy-3,4-dihydro-2H-1-benzopyran-3-carboxamide]
[1]
  effect of supplementation at passaging on trophoblast stem-like cells: benefited

## O=C(COc1ccc(Cl)cc1)NC1CCC(NC(=O)COc2ccc(Cl)cc2)CC1 (stereo not drawn) [cis-ISRIB]
[2]
  IC50: 600 nM

## O=C(COc1ccc(Cl)cc1)N[C@H]1CC[C@H](NC(=O)COc2ccc(Cl)cc2)CC1 [trans-ISRIB, N,N′-((1r,4r)-cyclohexane-1,4-diyl)bis(2-(4-chlorophenoxy)acetamide)]
[2]
  IC50: 5 nM
[2]; trans-ISRIB more potent than cis-ISRIB, Sidrauski et al. 2013
  potency of trans-ISRIB relative to cis-ISRIB: 100 fold
